Here are results for 3 compounds from US20130064821A1, “METHODS AND COMPOSITIONS FOR TREATING PROSTATE CANCER” (priority 2007, published 2013).

For assay [1], the system named is LNCaP cells, secreted PSA. In words: PSA production and secretion study in LNCaP cells (Example 6, PSA ELISA). Format: cell-based, human. As to conditions: 0.1 nM DHT, 120 hours, versus 5% CSS media alone.
Method: A human hormone sensitive prostate cancer cell line, LNCaP (ATCC), was exposed to a polypeptide as described in Example 1. The effects of the polypeptide on the production and secretion of the prostate specific antigen, PSA, was then assessed.
The human prostate cancer cell line, LNCaP was obtained from American Type Tissue Collection (ATCC) and was routinely cultured in growth medium containing phenol red RPMI 1640 (Invitrogen, Auckland, New Zealand) supplemented with 10% fetal bovine serum (FBS, 15 GIBCO) and 1% antibiotic/antimycotic mixture (Invitrogen, Auckland, New Zealand). Cells were maintained at 37° C. in 5% CO2. Dilutions were made for the polypeptide (20 ng/ml) in 5% charcoal strip serum (CSS, HyClone) for in vitro experiments.
3×10^3 LNCaP cells were plated per well in quadruplicate in a Falcon 96-well plate and allowed to attach overnight at 5% CO2/37° C. in growth medium (as indicated above). The medium was replaced with fresh complete growth medium after 36 hours. […] After 120 hours in culture, cell culture media was collected from each well and PSA reading was measured in duplicate for each well. Human PSA was measured according to the manufacturers methodology using the PSA ELISA from Diagnostic Systems Laboratories (cat number: DSL-10-9700).
Data are presented as means unless otherwise indicated. Error bars represent the 95% confidence intervals.
The subject of assay [2] is LNCaP cells, secreted PSA. In words: PSA production and secretion study in LNCaP cells with T and DHT (Example 7, PSA ELISA). The class given is cell-based, human. As to conditions: 0.1 nM androgen, 120 hours, versus 5% CSS media alone, mean of 6 wells.
Method: The effects of the polypeptide on the production and secretion of the prostate specific antigen, PSA, was then assessed.
The human prostate cancer cell line, LNCaP was obtained from American Type Tissue Collection (ATCC) and was routinely cultured in growth medium containing phenol red RPMI 1640 (Invitrogen, Auckland, New Zealand) supplemented with 10% fetal bovine serum (FBS, GIBCO) and 1% antibiotic/antimycotic mixture (Invitrogen, Auckland, New Zealand). Cells were maintained at 37° C. in 5% CO2. Dilutions were made for the polypeptide (20 ng/ml) in 5% charcoal strip serum (CSS, HyClone) for in vitro experiments.
3×10^3 LNCaP cells were plated per well in quadruplicate in a Falcon 96-well plate and allowed to attach overnight at 5% CO2/37° C. in growth medium (as indicated above). The medium was replaced with fresh complete growth medium after 36 hours. […] After 120 hours in culture, cell culture media was collected from each well and a PSA reading was measured in duplicate for each well. Human PSA was measured according to the manufacturers methodology using the PSA ELISA from Diagnostic Systems Laboratories (Cat number: DSL-10-9700).
Data are presented as means unless otherwise indicated.
For assay [3], the target named is albumin (Homo sapiens, UniProt P02768). To be noted: serum, men; cited from earlier work.
For assay [4], the target named is T1, sex hormone binding globulin (SHBG) (Homo sapiens, UniProt P04278).
T1 sequence (P04278 30-402): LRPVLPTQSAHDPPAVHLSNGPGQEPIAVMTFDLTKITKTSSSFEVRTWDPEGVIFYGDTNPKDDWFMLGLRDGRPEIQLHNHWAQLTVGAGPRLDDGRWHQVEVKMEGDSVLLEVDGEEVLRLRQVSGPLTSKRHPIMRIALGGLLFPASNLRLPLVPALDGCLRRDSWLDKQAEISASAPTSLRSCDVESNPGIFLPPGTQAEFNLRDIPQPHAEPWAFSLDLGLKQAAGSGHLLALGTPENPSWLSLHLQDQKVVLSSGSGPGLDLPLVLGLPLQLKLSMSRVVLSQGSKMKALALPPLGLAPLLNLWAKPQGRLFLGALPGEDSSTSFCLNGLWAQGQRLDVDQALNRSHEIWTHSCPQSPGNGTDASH
To be noted: serum, men; cited from earlier work.

Assay [5] has as its system LNCaP cells. Briefly: In vitro growth proliferation study of LNCaP cells, calcein fluorescence assay. The class given is cell-based, human. As to conditions: nilutamide 0.1 μM, 5 days (120 hours), mean of six wells. The protocol:
A human hormone sensitive prostate cancer cell line, LNCaP1 was exposed to the AR-LBD-IgG1 FC fusion protein as described in Example 1. The effects of the polypeptide on the growth and proliferation of the cells was then assessed.
In addition, LNCaP cells were also cultured in the presence of the non-steroidal antiandrogen nilutamide
The human prostate cancer cell line, LNCaP was obtained from American Type Tissue Collection (ATCC) and was routinely cultured in growth medium containing phenol red RPM1 1640 (Invitrogen, Auckland, New Zealand) supplemented with 10% fetal bovine serum (FBS1 G1BCO) and 1% antibiotic/antimycotic miyture (Invitrogen, Auckland, New Zealand). Cells were maintained at 37° C. in 5% CO2.
2×10^3 LNCaP cells were plated per well in a Falcon 96-well plate in 5% CO2/37° C. in growth medium in growth medium containing phenol red RPMI 1640 (Invitrogen, Auckland, New Zealand) supplemented with 10% fetal bovine serum (FBS, G1BCO) and 1% antibiotic/antimycotic mixture (Invitrogen, Auckland, New Zealand). Cells were treated with either AR-LBD IgG1 Fc fusion protein (12 ng/ml ) or IgG1 Fc control protein (12 ng/ml). […] Calcein positive cells were detected using a FLUOstar OPTIMA plate reader (BMG Labtech, Victoria, Australia). […]

Chain of albumin (P02768 25-609): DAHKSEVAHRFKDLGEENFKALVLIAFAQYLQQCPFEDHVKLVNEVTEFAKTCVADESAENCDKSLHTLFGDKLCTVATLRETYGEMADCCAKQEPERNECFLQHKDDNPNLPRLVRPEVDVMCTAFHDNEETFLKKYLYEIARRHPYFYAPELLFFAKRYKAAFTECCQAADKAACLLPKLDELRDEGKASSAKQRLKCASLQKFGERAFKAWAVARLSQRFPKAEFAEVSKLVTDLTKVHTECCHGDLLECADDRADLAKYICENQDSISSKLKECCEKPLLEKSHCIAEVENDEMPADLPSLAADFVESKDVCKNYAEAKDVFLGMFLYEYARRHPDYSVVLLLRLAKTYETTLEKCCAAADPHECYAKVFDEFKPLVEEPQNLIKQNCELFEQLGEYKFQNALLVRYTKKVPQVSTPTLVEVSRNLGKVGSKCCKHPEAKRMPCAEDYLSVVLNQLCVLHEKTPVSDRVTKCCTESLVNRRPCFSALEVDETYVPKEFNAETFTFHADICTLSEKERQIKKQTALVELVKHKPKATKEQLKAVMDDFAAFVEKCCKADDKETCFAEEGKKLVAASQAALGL

Turning to `C[C@]12CCC(=O)C[C@@H]1CC[C@@H]1[C@@H]2CC[C@]2(C)[C@@H](O)CC[C@@H]12` [DHT, dihydrotestosterone], the entries for the “effect of androgen on secreted PSA” value in assay [1] and in assay [2] were “significantly boost production of secreted PSA” and “strongly boost production of secreted PSA”, respectively.
As to `C[C@]12CC[C@H]3[C@@H](CCC4=CC(=O)CC[C@@]43C)[C@@H]1CC[C@@H]2O` [Testosterone, testosterone], in assay [3], the “association constant (Ka) with albumin” value is listed as “about 3×10^4 L/mol”. The “association constant (Ka) with SHBG” value in assay [4] is “about 1×10^9 L/mol”. For the same compound, the “effect of androgen on secreted PSA” value in assay [2] is listed as “clearly increase production of PSA”.
Turning to `CC1(C)NC(=O)N(c2ccc([N+](=O)[O-])c(C(F)(F)F)c2)C1=O` [nilutamide], the “reduction of prostate cancer cell proliferation” value in assay [5] is given as 80%.
